Reference: publication PMC3894180, “GABAA Receptors Containing ρ1 Subunits Contribute to In Vivo Effects of Ethanol in Mice” (PLoS ONE, 2014)

Molecular target: T1, human GABAA ρ2 receptor (homomeric) (Homo sapiens, UniProt P28476)
T1 construct: gene GABRR2; full-length homomeric pentamer; cRNA from pGEMHE vector injected into Xenopus laevis oocytes
Assay: two-electrode voltage clamp, Xenopus oocytes
Format: cell-based

T1 sequence (P28476 21-465): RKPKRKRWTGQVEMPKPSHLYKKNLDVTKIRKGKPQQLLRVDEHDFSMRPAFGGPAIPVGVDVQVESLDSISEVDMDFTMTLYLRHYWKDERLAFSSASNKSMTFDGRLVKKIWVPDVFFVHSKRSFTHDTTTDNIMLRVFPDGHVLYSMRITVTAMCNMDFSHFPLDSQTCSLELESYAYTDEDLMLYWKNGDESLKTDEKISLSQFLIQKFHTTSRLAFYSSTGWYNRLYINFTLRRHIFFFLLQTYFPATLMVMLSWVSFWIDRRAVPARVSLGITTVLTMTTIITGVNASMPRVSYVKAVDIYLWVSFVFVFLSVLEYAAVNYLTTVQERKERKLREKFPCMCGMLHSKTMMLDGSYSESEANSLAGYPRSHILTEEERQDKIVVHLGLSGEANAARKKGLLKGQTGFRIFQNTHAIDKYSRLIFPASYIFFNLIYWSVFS

EC50: 891 nM
SMILES: NCCCC(=O)O [GABA]
